Key:
[1] = test system: NPC Chinese Hamster Ovary (CHO) cells; test: Relative lysosomal volume via LysoTracker in NPC CHO cells; assay type: cell-based; details: 1 mM, 72 hours, p <0.01 versus untreated NPC1-null, FIG. 1
Description: NPC Chinese Hamster Ovary (CHO) cells were treated in vitro for 72 hours with 1 mM of acetyl-DL-leucine, acetyl-L-leucine, acetyl-D-leucine, DL-leucine, L-leucine, and D-leucine, respectively. Relative lysosomal volume was quantified via LysoTracker.
Data presented in FIG. 1 show the results for each treatment, with lysosomal volume expressed as fold change relative to untreated wild-type […]. The asterisks (**) indicate a p-values of <0.01 versus untreated NPC1-null.

cerebellar symptoms = details: cited from earlier work
cerebellar ataxia = details: patients with cerebellar ataxia (Schniepp 2015); cited from earlier work
[2] = test system: Niemann-Pick Type C (NPC); details: 12 patients with NPC (Bremova 2015); cited from earlier work
[3] = test system: ataxia of different etiologies; details: patients with ataxia, responders (Becker-Bense 2015); cited from earlier work
vertigo = details: cited from earlier work
[4] = test system: Migraine and Vestibular Migraine; test: Case study Example 4: Tanganil for migraine and vestibular migraine; assay type: in vivo, human; details: before treatment with Tanganil
From the text: Patient Details: • Sex: […] • Six tablets of Tanganil® per day: two in the morning, two at noon and two in the evening for one week; thereafter, ten tablets of Tanganil® per day: four in the morning, three at noon and three in the evening. Tanganil® tablets as described in Example 1.

Migraine with Aura = test: Case study Example 3: Tanganil for migraine with aura; assay type: in vivo, human; details: 600 mg taken once a week; before treatment with Tanganil
[5] = test system: acute unilateral labyrinthectomy; details: rat, by activation of the vestibulo-cerebellum and deactivation of the posterolateral thalamus (Gunther 2015); cited from earlier work

In the case of `CC(C)CC(N)C(=O)O` (racemic) [DL-leucine], the “lysosomal volume (LysoTracker), fold change relative to untreated wild-type” value [1] is reported as “significantly reduced”.
In the case of `CC(=O)NC(CC(C)C)C(=O)O` (racemic) [acetyl-DL-leucine], the “lysosomal volume (LysoTracker), fold change relative to untreated wild-type” value [1] is listed as “significantly reduced”, the “benefit in cerebellar patients” value (cerebellar symptoms; another case series (Pelz 2015)) is listed as “did not find benefit” and the cerebellar symptoms (cerebellar symptoms; case series (Strupp 2013)) is listed as “improvement of cerebellar symptoms”. The gait variability (cerebellar ataxia) was “improves gait variability”, the ataxia [2] was “significant improvement in ataxia” and the “brain metabolism (PET)” value [3] was “increased metabolism in the midbrain and lower brainstem”. For the same molecule, the “cases with improvement in vertigo symptomology” value (vertigo; clinical results reported by various authors, including disappearance of vertigo attacks) was “more than 95 % of cases” and the safety profile (vertigo; used in France to treat acute vertigo since 1957) was “excellent safety profile”.
For `CC(=O)Oc1ccccc1C(=O)O` [Aspirin], the “improvement of attacks of migraine headache with pain medication” value (“improvement … with pain medication” for short) [4] was “no improvement”.
With `CC(C)C[C@@H](N)C(=O)O` [D-leucine] the “lysosomal volume (LysoTracker), fold change relative to untreated wild-type” value [1] was “significantly reduced”.
For `CC(C)Cc1ccc(C(C)C(=O)O)cc1` (stereo not drawn) [Ibuprofen], the “response of headache attacks” value (Migraine with Aura) was “responding” and the “improvement … with pain medication” value [4] was “no improvement”.
In the case of `CC(C)C[C@H](N)C(=O)O` [L-leucine], the “lysosomal volume (LysoTracker), fold change relative to untreated wild-type” value [1] is reported as “significantly reduced”.
For `Cc1c(N(C)CS(=O)(=O)[O-])c(=O)n(-c2ccccc2)n1C.[Na+]` [Novalgin], the “improvement … with pain medication” value [4] was “improvement”.
With `CC(=O)N[C@H](CC(C)C)C(=O)O` [acetyl-D-leucine] the “lysosomal volume (LysoTracker), fold change relative to untreated wild-type” value [1] was “significantly reduced”.
For `CC(=O)N[C@@H](CC(C)C)C(=O)O` [acetyl-L-leucine], the “lysosomal volume (LysoTracker), fold change relative to untreated wild-type” value [1] is listed as “significantly reduced” and the “effect on postural compensation” value [5] is listed as “significant effect”.

— patent US11471434B2, “Treatment for migraine” (INTRABIO LTD., priority 2017, dated 2022)
